We go through one compound from ChEMBL document CHEMBL3526048, “In vitro metabolism of rivoglitazone, a novel peroxisome proliferator-activated receptor γ agonist, in rat, monkey, and human liver microsomes and freshly isolated hepatocytes” (Drug Metab Dispos, 2011).

The target in data set [1] is T1, UDP-glucuronosyltransferase 2B17 (Homo sapiens, UniProt O75795).
T1 sequence (O75795 whole entry): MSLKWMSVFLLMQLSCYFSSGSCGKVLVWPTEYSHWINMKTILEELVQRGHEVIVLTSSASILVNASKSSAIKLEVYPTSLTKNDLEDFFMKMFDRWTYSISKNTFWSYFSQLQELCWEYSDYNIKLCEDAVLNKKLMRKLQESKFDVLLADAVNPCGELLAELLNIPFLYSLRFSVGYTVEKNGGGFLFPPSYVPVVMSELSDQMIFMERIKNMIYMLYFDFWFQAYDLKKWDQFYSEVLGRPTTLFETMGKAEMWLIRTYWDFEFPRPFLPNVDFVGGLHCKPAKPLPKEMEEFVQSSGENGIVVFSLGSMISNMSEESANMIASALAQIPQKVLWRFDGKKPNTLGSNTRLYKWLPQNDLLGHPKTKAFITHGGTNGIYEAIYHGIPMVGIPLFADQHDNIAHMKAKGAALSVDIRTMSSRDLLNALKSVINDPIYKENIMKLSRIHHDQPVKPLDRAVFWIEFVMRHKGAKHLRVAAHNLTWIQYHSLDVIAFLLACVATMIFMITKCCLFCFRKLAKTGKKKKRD
Description: Activity of human UGT2B17 expressed in microsomes isolated from baculovirus infected insect cell assessed as enzyme-mediated (2S,3S,4S,5R,6R)-3,4,5-trihydroxy-6-(5-(4-((6-methoxy-1-methyl-1H-benzo[d]imidazol-2-yl)methoxy)benzyl)-2,4-dioxothiazolidin-3-yl)tetrahydro-2H-pyran-2-carboxylic acid formation at 20 uM after 4 hrs by radio-HPLC/LC-MS/MS analysis in presence of UDPGA. Format: ADME.

The test system of data set [2] is Liver microsome. The experiment in a line: Drug metabolism in human liver microsomes assessed as formation of 5-(4-((6-methoxy-1H-benzo[d]imidazol-2-yl)methoxy)benzyl)thiazolidine-2,4-dione at 20 uM after 2 hrs by radio-HPLC/LC-MS/MS analysis in presence of NADPH-generating system and NADPH-generating system/SAM. Format: ADME. For orientation: Liver microsomes are vesicles of endoplasmic reticulum, rich in cytochrome P450 enzymes.

Another data set concerns the target Cytochrome P450 2D6 (Homo sapiens, UniProt P10635). Description: Activity of human CYP2D6 expressed in microsomes isolated from baculovirus infected insect cell assessed as enzyme-mediated 3-(4-((6-methoxy-1-methyl-1H-benzo[d]imidazol-2-yl)methoxy)phenyl)-2-(methylthio)propanamide formation at 20 uM after 2 hrs by radio-HPLC/LC-MS/MS analysis in presence of NADPH-generating system/SAM. The format is ADME.

Another data set concerns the target T2, Cytochrome P450 1A2 (Homo sapiens, UniProt P05177).
T2 sequence (P05177 whole entry): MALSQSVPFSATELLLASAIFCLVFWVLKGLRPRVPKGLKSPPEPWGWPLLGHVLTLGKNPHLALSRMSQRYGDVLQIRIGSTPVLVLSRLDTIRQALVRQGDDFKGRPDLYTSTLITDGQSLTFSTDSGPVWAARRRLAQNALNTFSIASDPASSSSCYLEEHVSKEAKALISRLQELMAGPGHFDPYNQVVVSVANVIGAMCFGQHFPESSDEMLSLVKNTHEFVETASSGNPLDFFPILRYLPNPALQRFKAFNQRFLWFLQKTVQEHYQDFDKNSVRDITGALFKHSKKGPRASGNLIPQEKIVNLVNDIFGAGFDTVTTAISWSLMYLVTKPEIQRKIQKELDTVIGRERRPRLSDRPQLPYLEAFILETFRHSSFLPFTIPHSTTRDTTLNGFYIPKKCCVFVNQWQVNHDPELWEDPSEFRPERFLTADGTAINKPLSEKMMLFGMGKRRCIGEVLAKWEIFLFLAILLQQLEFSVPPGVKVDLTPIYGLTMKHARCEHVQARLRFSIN
Description: Activity of human CYP1A2 expressed in microsomes isolated from baculovirus infected insect cell assessed as enzyme-mediated 3-(4-((6-methoxy-1-methyl-1H-benzo[d]imidazol-2-yl)methoxy)phenyl)-2-(methylsulfonyl)propanamide formation at 20 uM after 2 hrs by radio-HPLC/LC-MS/MS analysis in presence of NADPH-generating system/SAM. The format is ADME.

In the next data set the target is Cytochrome P450 3A4 (Homo sapiens, UniProt P08684). The experiment in a line: Activity of human CYP3A4 expressed in microsomes isolated from baculovirus infected insect cell assessed as enzyme-mediated 2-mercapto-3-(4-((6-methoxy-1-methyl-1H-benzo[d]imidazol-2-yl)methoxy)phenyl)propanamide formation at 20 uM after 2 hrs by radio-HPLC/LC-MS/MS analysis in presence of NADPH-generating system and NADPH-generating system/SAM. Format: ADME.

Data set [3] relates to Liver microsome. Description: Drug metabolism in human liver microsomes assessed as formation of 5-hydroxy-5-(4-((6-methoxy-1-methyl-1H-benzo[d]imidazol-2-yl)methoxy)benzyl)thiazolidine-2,4-dione at 20 uM after 2 hrs by radio-HPLC/LC-MS/MS analysis in presence of NADPH-generating system and NADPH-generating system/SAM. Format: ADME.
Data set [4] can be described thus: Drug metabolism in monkey hepatocytes assessed as formation of 3-(4-((6-methoxy-1-methyl-1H-benzo[d]imidazol-2-yl)methoxy)phenyl)-2-(methylsulfonyl)propanamide at 30 uM after 3 hrs by radio-HPLC/LC-MS/MS analysis in presence of NADPH-generating system/SAM. As to conditions: cynomolgus monkey.
Data set [5] has as its system Liver microsome. Description: Drug metabolism in Sprague-Dawley rat liver microsomes assessed as formation of 2-mercapto-3-(4-((6-methoxy-1-methyl-1H-benzo[d]imidazol-2-yl)methoxy)phenyl)propanamide at 20 uM after 2 hrs by radio-HPLC/LC-MS/MS analysis in presence of NADPH-generating system and NADPH-generating system/SAM. Format: ADME.
The target in data set [6] is T3, UDP-glucuronosyltransferase 1A6 (Homo sapiens, UniProt P19224).
T3 sequence (P19224 whole entry): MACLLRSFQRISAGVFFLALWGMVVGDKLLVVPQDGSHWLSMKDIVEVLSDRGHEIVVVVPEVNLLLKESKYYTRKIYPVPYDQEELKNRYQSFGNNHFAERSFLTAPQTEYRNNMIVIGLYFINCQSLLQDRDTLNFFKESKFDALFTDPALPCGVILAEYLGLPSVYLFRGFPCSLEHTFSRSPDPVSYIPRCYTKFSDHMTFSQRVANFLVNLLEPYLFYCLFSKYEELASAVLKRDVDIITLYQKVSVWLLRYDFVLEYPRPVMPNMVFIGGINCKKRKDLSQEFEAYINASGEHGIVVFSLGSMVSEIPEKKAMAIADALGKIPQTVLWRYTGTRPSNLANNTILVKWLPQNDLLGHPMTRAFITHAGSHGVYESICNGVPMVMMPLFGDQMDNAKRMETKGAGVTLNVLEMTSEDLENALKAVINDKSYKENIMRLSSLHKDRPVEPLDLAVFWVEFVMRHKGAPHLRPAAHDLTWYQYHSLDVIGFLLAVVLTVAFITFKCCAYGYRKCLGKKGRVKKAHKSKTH
The experiment in a line: Activity of human UGT1A6 expressed in microsomes isolated from baculovirus infected insect cell assessed as enzyme-mediated 2-mercapto-3-(4-((6-methoxy-1-methyl-1H-benzo[d]imidazol-2-yl)methoxy)phenyl)propanoic acid formation at 20 uM after 4 hrs by radio-HPLC/LC-MS/MS analysis in presence of UDPGA. Format: ADME.

Chain of Cytochrome P450 3A4 (P08684 whole entry): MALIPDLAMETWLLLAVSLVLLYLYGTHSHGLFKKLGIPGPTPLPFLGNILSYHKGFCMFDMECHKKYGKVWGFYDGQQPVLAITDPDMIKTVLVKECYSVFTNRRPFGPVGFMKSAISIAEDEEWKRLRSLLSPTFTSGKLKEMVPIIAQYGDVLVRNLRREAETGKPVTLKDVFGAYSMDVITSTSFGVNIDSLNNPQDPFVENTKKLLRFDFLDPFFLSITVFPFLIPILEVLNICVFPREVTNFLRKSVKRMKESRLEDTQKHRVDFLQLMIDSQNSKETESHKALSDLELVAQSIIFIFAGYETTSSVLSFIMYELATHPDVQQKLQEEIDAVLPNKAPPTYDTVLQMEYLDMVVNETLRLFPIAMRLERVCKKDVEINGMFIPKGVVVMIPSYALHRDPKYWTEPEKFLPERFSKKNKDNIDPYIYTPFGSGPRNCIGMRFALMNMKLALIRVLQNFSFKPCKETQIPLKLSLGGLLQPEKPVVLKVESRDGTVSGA
Chain of Cytochrome P450 2D6 (P10635 whole entry): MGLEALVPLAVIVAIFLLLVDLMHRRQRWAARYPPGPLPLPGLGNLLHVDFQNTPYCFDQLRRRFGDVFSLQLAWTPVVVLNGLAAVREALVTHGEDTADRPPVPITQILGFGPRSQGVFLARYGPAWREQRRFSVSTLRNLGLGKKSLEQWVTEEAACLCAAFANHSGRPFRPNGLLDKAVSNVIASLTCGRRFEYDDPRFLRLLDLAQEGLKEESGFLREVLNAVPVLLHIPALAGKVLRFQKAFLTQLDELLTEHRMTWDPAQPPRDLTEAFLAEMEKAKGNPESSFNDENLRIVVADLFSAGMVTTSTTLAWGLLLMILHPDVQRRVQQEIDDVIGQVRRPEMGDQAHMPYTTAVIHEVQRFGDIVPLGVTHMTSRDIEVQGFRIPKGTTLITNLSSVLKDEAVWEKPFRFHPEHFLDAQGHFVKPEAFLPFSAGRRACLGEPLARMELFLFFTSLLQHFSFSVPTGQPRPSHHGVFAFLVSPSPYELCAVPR

For the compound `COc1ccc2nc(COc3ccc(C[14CH]4SC(=O)NC4=O)cc3)n(C)c2c1.Cl` (racemic), the Drug metabolism entry in data set [1] was “metabolite_not_detected”; in the data set with Liver microsome [2], “metabolite_detected”; at Cytochrome P450 2D6 it was “metabolite_not_detected”; on Cytochrome P450 1A2 it was “metabolite_not_detected”; on Cytochrome P450 3A4, “metabolite_detected”; in the data set on Liver microsome [3] it was “metabolite_detected”. The Drug metabolism result is “metabolite_not_detected” in data set [4], “metabolite_detected” with Liver microsome [5] and “metabolite_not_detected” in data set [6].
